Here are results for nine cell lines from the supplement of paper PMC10307832.

Compound in assay [1]: CC(C)(C)c1cc(NC(=O)Nc2ccc(-c3cn4c(n3)sc3cc(OCCN5CCOCC5)ccc34)cc2)no1 [Quizartinib] + NC(=O)Nc1cc(-c2cccc(F)c2)sc1C(=O)N[C@H]1CCCNC1 [AZD7762] (partner 0.2 µM)
Description: relative viability (nuclei count vs DMSO), 5 days (fraction); higher = more cells survive. In outline:
(§1)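 Lung cancer cell lines in 1536-well plates were dosed by pin tool the day after seeding, either with one drug alone or with a fixed anchor-drug dose plus five library-drug doses (not always all listed) in √10 steps. After 5 days, cells were fixed and their nuclei stained in one step (final 0.05% Triton X-100, 1% formaldehyde, 1 ug/ml Hoechst), then counted on 4× images. Relative viability is the nuclei count in treated wells divided by that in vehicle wells. Values are medians of duplicate plates.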

Compound in assay [2]: CC(C)(C)c1cc(NC(=O)Nc2ccc(-c3cn4c(n3)sc3cc(OCCN5CCOCC5)ccc34)cc2)no1 [Quizartinib] + O=C(CCCCCCC(=O)Nc1ccccc1)NO [Vorinostat] (partner 1 µM)
The assay is described as above. In a few lines: as §1

Turning to NCI-H23, the relative viability in assay [1] (first compound 0.001 µM) is 0.302; in assay [1] (first compound 0.003162 µM), 0.173; in assay [1] (first compound 0.01 µM), 0.277; in assay [1] (first compound 0.03162 µM) it was 0.195; in assay [1] (first compound 0.1 µM), 0.25; in assay [2] (first compound 0.001 µM), 0.576. The relative viability was 0.6 in assay [2] (first compound 0.003162 µM), 0.545 in assay [2] (first compound 0.01 µM), 0.593 in assay [2] (first compound 0.03162 µM) and 0.649 in assay [2] (first compound 0.1 µM).
For NCI-H322M, the relative viability in assay [1] (first compound 0.001 µM) was 0.531; in assay [1] (first compound 0.003162 µM) it was 0.56; in assay [1] (first compound 0.01 µM) it was 0.557; in assay [1] (first compound 0.03162 µM) it was 0.531; in assay [1] (first compound 0.1 µM), 0.705; in assay [2] (first compound 0.001 µM), 0.867. The relative viability came out at 0.842 in assay [2] (first compound 0.003162 µM), 0.836 in assay [2] (first compound 0.01 µM), 0.878 in assay [2] (first compound 0.03162 µM) and 0.903 in assay [2] (first compound 0.1 µM).
For the cell line NCI-H358, the relative viability in assay [1] (first compound 0.001 µM) worked out at 0.578; in assay [1] (first compound 0.003162 µM) it was 0.448; in assay [1] (first compound 0.01 µM), 0.555; in assay [1] (first compound 0.1 µM) it was 0.5; in assay [2] (first compound 0.001 µM), 0.733; in assay [2] (first compound 0.003162 µM), 0.572. The results for the relative viability in assay [2] (first compound 0.01 µM) and in assay [2] (first compound 0.1 µM) were 0.803 and 0.815, respectively.
With NCI-H441, the relative viability stood at 0.872 in assay [1] (first compound 0.001 µM); 1.04 in assay [1] (first compound 0.003162 µM); 1.14 in assay [1] (first compound 0.01 µM); 0.991 in assay [1] (first compound 0.03162 µM); 1.1 in assay [1] (first compound 0.1 µM); 0.755 in assay [2] (first compound 0.001 µM). Also, the relative viability in assay [2] (first compound 0.003162 µM) was found to be 0.683; in assay [2] (first compound 0.01 µM), 0.972; in assay [2] (first compound 0.03162 µM), 0.595; in assay [2] (first compound 0.1 µM), 0.834.
As to NCI-H460, the relative viability in assay [1] (first compound 0.003162 µM) amounted to 0.591; in assay [1] (first compound 0.01 µM), 0.648; in assay [1] (first compound 0.03162 µM), 0.544; in assay [1] (first compound 0.1 µM) it was 0.621; in assay [2] (first compound 0.003162 µM) it was 0.734; in assay [2] (first compound 0.01 µM), 0.687. In addition, the relative viability in assay [2] (first compound 0.1 µM) stood at 0.566.
For NCI-H520, the relative viability in assay [2] (first compound 0.003162 µM) is 0.607; in assay [2] (first compound 0.01 µM), 0.768; in assay [2] (first compound 0.03162 µM) it was 0.61; in assay [2] (first compound 0.1 µM) it was 0.573.
As for NCI-H522, the relative viability in assay [1] (first compound 0.001 µM) is 0.849; in assay [1] (first compound 0.003162 µM) it was 0.775; in assay [1] (first compound 0.01 µM), 0.675; in assay [1] (first compound 0.03162 µM), 0.871; in assay [1] (first compound 0.1 µM), 0.778; in assay [2] (first compound 0.001 µM), 0.803. Moreover, the relative viability was found to be 0.849 in assay [2] (first compound 0.003162 µM), 0.818 in assay [2] (first compound 0.01 µM), 0.874 in assay [2] (first compound 0.03162 µM) and 0.834 in assay [2] (first compound 0.1 µM).
Consider NCI-H596, for which the relative viability in assay [1] (first compound 0.001 µM) came out at 1.12; in assay [1] (first compound 0.003162 µM), 1.07; in assay [1] (first compound 0.01 µM) it was 1.02; in assay [1] (first compound 0.03162 µM) it was 1.04; in assay [1] (first compound 0.1 µM), 1.32; in assay [2] (first compound 0.001 µM) it was 0.565. Moreover, the relative viability in assay [2] (first compound 0.003162 µM) is 0.775; in assay [2] (first compound 0.01 µM), 0.61; in assay [2] (first compound 0.03162 µM), 0.686; in assay [2] (first compound 0.1 µM), 0.6.
Regarding NCI-H647, the relative viability in assay [1] (first compound 0.001 µM) came to 0.39; in assay [1] (first compound 0.003162 µM), 0.651; in assay [1] (first compound 0.01 µM), 0.422; in assay [1] (first compound 0.03162 µM) it was 0.325; in assay [1] (first compound 0.1 µM), 0.566; in assay [2] (first compound 0.001 µM) it was 0.567. Further, the relative viability in assay [2] (first compound 0.003162 µM) came out at 0.494; in assay [2] (first compound 0.01 µM), 0.655; in assay [2] (first compound 0.03162 µM), 0.688; in assay [2] (first compound 0.1 µM) it was 0.998.
